Assay results as given in US10906915B2, “Substituted pyrazoloazepin-4-ones and their use as phosphodiesterase inhibitors” (LEO Pharma A/S, priority 2016, dated 2021).

molecular target: human PDE4D catalytic domain (UniProt no. Q08499) (Homo sapiens (Human), UniProt Q08499); experiment: PDE4 assay (TR-FRET, FAM-cAMP cleavage); assay type: biochemical; conditions: human PDE4D catalytic domain; molar concentration giving 50% inhibition of substrate cleavage; read-out: PDE4 IC50 range
Protocol: The human PDE4D catalytic domain (UniProt no. Q08499 [[…]]) was incubated with a mixture of non-labelled cAMP (cyclic adenosine monophosphate) and fluorescein amidite (FAM) conjugated cAMP and titrated test or reference compound. Following brief incubation the enzymatic reaction was stopped by addition of binding buffer containing nanoparticles with immobilized trivalent metal ions capable of binding 1) AMP phospho groups and 2) terbium (Tb) donor fluorophores. Subsequent excitation of the Tb donor triggers time-resolved FRET to adjacent FAM acceptor molecules resulting in light emission. In the presence of a PDE4 inhibitor, AMP generation was reduced resulting in a lower fluorescence signal. The cAMP phosphodiester is not bound by the detection system.
The results were calculated as the molar concentrations resulting in 50% inhibition of the substrate cleavage compared to controls samples, and are expressed as a range of IC50 (nM).

human PDE4D catalytic domain, sequence (Q08499 380-740 limits assumed): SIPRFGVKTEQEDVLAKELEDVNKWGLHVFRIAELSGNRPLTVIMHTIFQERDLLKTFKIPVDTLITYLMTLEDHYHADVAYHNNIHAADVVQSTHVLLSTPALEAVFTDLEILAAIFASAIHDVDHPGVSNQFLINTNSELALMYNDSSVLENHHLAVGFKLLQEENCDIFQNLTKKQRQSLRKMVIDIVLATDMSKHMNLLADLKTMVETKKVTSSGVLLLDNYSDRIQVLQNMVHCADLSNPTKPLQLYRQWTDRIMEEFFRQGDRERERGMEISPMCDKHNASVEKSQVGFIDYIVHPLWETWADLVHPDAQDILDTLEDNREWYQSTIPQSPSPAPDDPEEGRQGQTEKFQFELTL

How did the IC50 turn out when `CCc1nn(CCCOC(=O)c2ccc(C)c(F)c2)c2c1C(=O)NCC1(CCOCC1)C2` [Example 32, 3-(3-ethyl-4-oxo-spiro[6,8-dihydro-5H-pyrazolo[4,3-c]azepine-7,4′-tetrahydropyran]-1-yl)propyl 3-fluoro-4-methyl-benzoate] was run?
The IC50 was under 100 nM.

For `CCc1nn(CCCOC(=O)c2ccc(C)cc2F)c2c1C(=O)NCC1(CCOCC1)C2` [Example 33, 3-(3-ethyl-4-oxo-spiro[6,8-dihydro-5H-pyrazolo[4,3-c]azepine-7,4′-tetrahydropyran]-1-yl)propyl 2-fluoro-4-methyl-benzoate], which IC50 is on record?
Its IC50 is under 100 nM.

Which IC50 does the source give for `CCc1nn(CCCOC(=O)c2cc(F)ccc2C)c2c1C(=O)NCC1(CCOCC1)C2` [Example 34, 3-(3-ethyl-4-oxo-spiro[6,8-dihydro-5H-pyrazolo[4,3-c]azepine-7,4′-tetrahydropyran]-1-yl)propyl 5-fluoro-2-methyl-benzoate] here?
The IC50 was under 100 nM.

Which IC50 does the source give for `CCc1nn(CCCOC(=O)c2ccc(F)c(C)c2)c2c1C(=O)NCC1(CCOCC1)C2` [Example 35, 3-(3-ethyl-4-oxo-spiro[6,8-dihydro-5H-pyrazolo[4,3-c]azepine-7,4′-tetrahydropyran]-1-yl)propyl 4-fluoro-3-methyl-benzoate] here?
Its IC50 is under 100 nM.

With `CCc1nn(CCCOC(=O)c2cccc(F)c2C)c2c1C(=O)NCC1(CCOCC1)C2` [Example 36, 3-(3-ethyl-4-oxo-spiro[6,8-dihydro-5H-pyrazolo[4,3-c]azepine-7,4′-tetrahydropyran]-1-yl)propyl 3-fluoro-2-methyl-benzoate] as the compound, how does the IC50 read?
The IC50 was under 100 nM.

Which IC50 does the source give for `CCc1nn(CCCOC(=O)c2cc(C)ccc2F)c2c1C(=O)NCC1(CCOCC1)C2` [Example 37, 3-(3-ethyl-4-oxo-spiro[6,8-dihydro-5H-pyrazolo[4,3-c]azepine-7,4′-tetrahydropyran]-1-yl)propyl 2-fluoro-5-methyl-benzoate] here?
Its IC50 is under 100 nM.

How did the IC50 turn out when `CCc1nn(CCCOC(=O)c2ccc(F)cc2C)c2c1C(=O)NCC1(CCOCC1)C2` [Example 38, 3-(3-ethyl-4-oxo-spiro[6,8-dihydro-5H-pyrazolo[4,3-c]azepine-7,4′-tetrahydropyran]-1-yl)propyl 4-fluoro-2-methyl-benzoate] was run?
Its IC50 is under 100 nM.

With `CCc1nn(CCCOC(=O)c2c(C)cccc2F)c2c1C(=O)NCC1(CCOCC1)C2` [Example 39, 3-(3-ethyl-4-oxo-spiro[6,8-dihydro-5H-pyrazolo[4,3-c]azepine-7,4′-tetrahydropyran]-1-yl)propyl 2-fluoro-6-methyl-benzoate] as the compound, how does the IC50 read?
Its IC50 is under 100 nM.

How did the IC50 turn out when `CCc1nn(CCCOC(=O)c2ccccc2Cl)c2c1C(=O)NCC1(CCOCC1)C2` [Example 40, 3-(3-ethyl-4-oxo-spiro[6,8-dihydro-5H-pyrazolo[4,3-c]azepine-7,4′-tetrahydropyran]-1-yl)propyl 2-chlorobenzoate] was run?
Its IC50 is under 100 nM.

`CCc1nn(CCCOC(=O)c2cccc(Cl)c2)c2c1C(=O)NCC1(CCOCC1)C2` [Example 41, 3-(3-ethyl-4-oxo-spiro[6,8-dihydro-5H-pyrazolo[4,3-c]azepine-7,4′-tetrahydropyran]-1-yl)propyl 3-chlorobenzoate] was tested. Which IC50 did it give?
Its IC50 is under 100 nM.

`CCc1nn(CCCOC(=O)c2ccc(Cl)cc2)c2c1C(=O)NCC1(CCOCC1)C2` [Example 42, 3-(3-ethyl-4-oxo-spiro[6,8-dihydro-5H-pyrazolo[4,3-c]azepine-7,4′-tetrahydropyran]-1-yl)propyl 4-chlorobenzoate] was tested. Which IC50 did it give?
Its IC50 is under 100 nM.

With `CCc1nn(CCCOC(=O)c2cc(F)cc(F)c2)c2c1C(=O)NCC1(CCOCC1)C2` [Example 43, 3-(3-ethyl-4-oxo-spiro[6,8-dihydro-5H-pyrazolo[4,3-c]azepine-7,4′-tetrahydropyran]-1-yl)propyl 3,5-difluorobenzoate] as the compound, how does the IC50 read?
The IC50 was under 100 nM.

How did the IC50 turn out when `CCc1nn(CCCOC(=O)c2ccc(F)c(F)c2)c2c1C(=O)NCC1(CCOCC1)C2` [Example 44, 3-(3-ethyl-4-oxo-spiro[6,8-dihydro-5H-pyrazolo[4,3-c]azepine-7,4′-tetrahydropyran]-1-yl)propyl 3,4-difluorobenzoate] was run?
The IC50 was under 100 nM.

`CCc1nn(CCCOC(=O)c2cccc(F)c2F)c2c1C(=O)NCC1(CCOCC1)C2` [Example 45, 3-(3-ethyl-4-oxo-spiro[6,8-dihydro-5H-pyrazolo[4,3-c]azepine-7,4′-tetrahydropyran]-1-yl)propyl 2,3-difluorobenzoate] was tested. Which IC50 did it give?
Its IC50 is under 100 nM.

`CCc1nn(CCCOC(=O)c2c(F)cccc2F)c2c1C(=O)NCC1(CCOCC1)C2` [Example 46, 3-(3-ethyl-4-oxo-spiro[6,8-dihydro-5H-pyrazolo[4,3-c]azepine-7,4′-tetrahydropyran]-1-yl)propyl 2,6-difluorobenzoate] was tested. Which IC50 did it give?
The IC50 was under 100 nM.

How did the IC50 turn out when `CCc1nn(CCCOC(=O)c2cc(F)ccc2F)c2c1C(=O)NCC1(CCOCC1)C2` [Example 47, 3-(3-ethyl-4-oxo-spiro[6,8-dihydro-5H-pyrazolo[4,3-c]azepine-7,4′-tetrahydropyran]-1-yl)propyl 2,5-difluorobenzoate] was run?
The IC50 was under 100 nM.

How did the IC50 turn out when `CCc1nn(CCCOC(=O)C2CCC(OC)CC2)c2c1C(=O)NCC1(CCOCC1)C2` (stereo not shown) [Example 48, 3-(3-ethyl-4-oxo-spiro[6,8-dihydro-5H-pyrazolo[4,3-c]azepine-7,4′-tetrahydropyran]-1-yl)propyl 4-methoxycyclohexane-carboxylate] was run?
The IC50 was 100 to 500 nM.

How did the IC50 turn out when `CCc1nn(CCCOC(=O)C2CCC(F)(F)CC2)c2c1C(=O)NCC1(CCOCC1)C2` [Example 49, 3-(3-ethyl-4-oxo-spiro[6,8-dihydro-5H-pyrazolo[4,3-c]azepine-7,4′-tetrahydropyran]-1-yl)propyl 4,4-difluorocyclohexane-carboxylate] was run?
Its IC50 is 100 to 500 nM.

`CCc1nn(CCCOC(=O)c2ccc(C(C)=O)cc2)c2c1C(=O)NCC1(CCOCC1)C2` [Example 50, 3-(3-ethyl-4-oxo-spiro[6,8-dihydro-5H-pyrazolo[4,3-c]azepine-7,4′-tetrahydropyran]-1-yl)propyl 4-acetylbenzoate] was tested. Which IC50 did it give?
Its IC50 is under 100 nM.

For `CCc1nn(CCCOC(=O)c2cccc(C(C)=O)c2)c2c1C(=O)NCC1(CCOCC1)C2` [Example 51, 3-(3-ethyl-4-oxo-spiro[6,8-dihydro-5H-pyrazolo[4,3-c]azepine-7,4′-tetrahydropyran]-1-yl)propyl 3-acetylbenzoate], which IC50 is on record?
The IC50 was under 100 nM.

Which IC50 does the source give for `CCc1nn(CCCOC(=O)c2ccc(C#N)c(F)c2)c2c1C(=O)NCC1(CCOCC1)C2` [Example 52, 3-(3-ethyl-4-oxo-spiro[6,8-dihydro-5H-pyrazolo[4,3-c]azepine-7,4′-tetrahydropyran]-1-yl)propyl 4-cyano-3-fluoro-benzoate] here?
The IC50 was under 100 nM.

`CCc1nn(CCCOC(=O)c2cc(F)cc(C#N)c2)c2c1C(=O)NCC1(CCOCC1)C2` [Example 53, 3-(3-ethyl-4-oxo-spiro[6,8-dihydro-5H-pyrazolo[4,3-c]azepine-7,4′-tetrahydropyran]-1-yl)propyl 3-cyano-5-fluoro-benzoate] was tested. Which IC50 did it give?
Its IC50 is under 100 nM.

`CCc1nn(CCCOC(=O)c2ccc(C#N)cc2F)c2c1C(=O)NCC1(CCOCC1)C2` [Example 54, 3-(3-ethyl-4-oxo-spiro[6,8-dihydro-5H-pyrazolo[4,3-c]azepine-7,4′-tetrahydropyran]-1-yl)propyl 4-cyano-2-fluoro-benzoate] was tested. Which IC50 did it give?
Its IC50 is under 100 nM.

How did the IC50 turn out when `CCc1nn(CCCOC(=O)c2ccc(F)c(C#N)c2)c2c1C(=O)NCC1(CCOCC1)C2` [Example 55, 3-(3-ethyl-4-oxo-spiro[6,8-dihydro-5H-pyrazolo[4,3-c]azepine-7,4′-tetrahydropyran]-1-yl)propyl 3-cyano-4-fluoro-benzoate] was run?
The IC50 was under 100 nM.

For `CCc1nn(CCCOC(=O)c2cc(C#N)ccc2F)c2c1C(=O)NCC1(CCOCC1)C2` [Example 56, 3-(3-ethyl-4-oxo-spiro[6,8-dihydro-5H-pyrazolo[4,3-c]azepine-7,4′-tetrahydropyran]-1-yl)propyl 5-cyano-2-fluoro-benzoate], which IC50 is on record?
Its IC50 is under 100 nM.

`CCc1nn(CCCOC(=O)c2ccc3c(c2)OCO3)c2c1C(=O)NCC1(CCOCC1)C2` [Example 57, 3-(3-ethyl-4-oxo-spiro[6,8-dihydro-5H-pyrazolo[4,3-c]azepine-7,4′-tetrahydropyran]-1-yl)propyl 1,3-benzodioxole-5-carboxylate] was tested. Which IC50 did it give?
Its IC50 is under 100 nM.

With `CCc1nn(CCCOC(=O)c2ccc(OC)c(C)c2)c2c1C(=O)NCC1(CCOCC1)C2` [Example 58, 3-(3-ethyl-4-oxo-spiro[6,8-dihydro-5H-pyrazolo[4,3-c]azepine-7,4′-tetrahydropyran]-1-yl)propyl 4-methoxy-3-methyl-benzoate] as the compound, how does the IC50 read?
Its IC50 is under 100 nM.

`CCc1nn(CCCOC(=O)c2ccc(C)c(OC)c2)c2c1C(=O)NCC1(CCOCC1)C2` [Example 59, 3-(3-ethyl-4-oxo-spiro[6,8-dihydro-5H-pyrazolo[4,3-c]azepine-7,4′-tetrahydropyran]-1-yl)propyl 3-methoxy-4-methyl-benzoate] was tested. Which IC50 did it give?
Its IC50 is under 100 nM.

For `CCc1nn(CCCOC(=O)c2ccc(C)cc2OC)c2c1C(=O)NCC1(CCOCC1)C2` [Example 60, 3-(3-ethyl-4-oxo-spiro[6,8-dihydro-5H-pyrazolo[4,3-c]azepine-7,4′-tetrahydropyran]-1-yl)propyl 2-methoxy-4-methyl-benzoate], which IC50 is on record?
Its IC50 is under 100 nM.

`CCOc1cccc(C(=O)OCCCn2nc(CC)c3c2CC2(CCOCC2)CNC3=O)c1` [Example 61, 3-(3-ethyl-4-oxo-spiro[6,8-dihydro-5H-pyrazolo[4,3-c]azepine-7,4′-tetrahydropyran]-1-yl)propyl 3-ethoxybenzoate] was tested. Which IC50 did it give?
Its IC50 is under 100 nM.

Which IC50 does the source give for `CCc1nn(CCCOC(=O)c2ccc(OC)c(F)c2)c2c1C(=O)NCC1(CCOCC1)C2` [Example 62, 3-(3-ethyl-4-oxo-spiro[6,8-dihydro-5H-pyrazolo[4,3-c]azepine-7,4′-tetrahydropyran]-1-yl)propyl 3-fluoro-4-methoxy-benzoate] here?
The IC50 was under 100 nM.
